Experimental data reported in US5141627A, “Chelators whose affinity for calcium ion is increased by illumination” (The Regents of the University of California, priority 1989, dated 1992).
Where “and” joins values, the source holds several entries; their conditions need not be identical. Identical values can stand only once. Like-named read-outs stand apart in the source and are kept apart here. Values belong to the molecule of their own block, whether it stands above or below them.

Tests used:
[1] = Ca2+ affinity by UV spectra during titration of EGTA or HEEDTA buffers; assay type: binding; settings: after photolysis; Hill plot / equilibrium measurements; read-out: Kd (Ca2+) / affinity after photolysis
Method: The titration was done at 22° C. with 10 mL of 100 mM KCl, 10 mM K-MOPS, 10 mM K2 H.HEEDTA, and 14 […] diazo-2 as starting materials, adjusting the pH to 7.24, recording the spectrum, and then discarding 1.0 mL of this solution and replacing with 1.0 mL of 100 mM KCl, 10 mM K.MOPS, 10 mM KCa.HEEDTA, 14 μM diazo-2, readjusting the pH to 7.24, and recording the spectra, which was then in 9 mM K2H.HEEDTA. Subsequent iterations to reach n mM KCa.HEEDTA, (10-n) mM HEEDTA, n=2-10, were done by discarding 10.0/(11-n) mL and replacing with equal volumes of the 10mM KCa.HEEDTA, 14 μM diazo-2 stock. After n=10 had been reached to give free Ca^2+ between 10^-5 and 10^-4 M, addition of 1 mM CaCl2 had no further effect on the spectrum. For clarity only six spectra are including in the figure, n=0, 2, 4, 6, 8, and 10. Each spectrum is labeled with the calculated free [Ca^2+ ] imposed by the HEEDTA buffer, assuming a log effective stability constant of 5.55 at pH 7.24.
The phenylacetate was produced by irradiating a 30 μM solution of diazo-2 in 100 mM KCl, 10 mM Tris.HCl, 10 mM K2 H.HEEDTA, pH 8.40, with Spectroline lamp at 365 nm to completion. The titration was then performed as in A but the pH was maintained at 8.40, at which the calculated log effective stability is constant for HEEDTA was 6.60.
Ca^2+ -binding constants for chelators before and after photolysis were determined by monitoring UV spectra during titration of EGTA or HEEDTA buffers to varying free Ca^2+ levels.
Either the ratio of, for example, [Ca.EGTA] to free [EGTA] was adjusted at a constant pH, or the pH was varied while [Ca.EGTA]=[EGTA]. These two approaches gave equivalent answers for pH>7 whenever directly tested, because of the pH insensitivity of BAPTA-like ligands (see FIG. 1 legend for more details). The apparent dissociation constants of Ca.EGTA and Ca.HEEDTA were calculated as described by R. Y. Tsien (1980); see also R. Y. Tsien, et al. (1986), S. R. Adams, et al. (1980), Grynkiewicz, et al., (1985), and Jackson, et al. (1987).

[2] = Ca2+ binding kinetics of photolyzed diazo-2 by competition with HEEDTA after flash photolysis
Text: Having determined the rate at which the high-affinity chelator was photochemically generated from diazo-2, the kinetics of Ca^2+ binding by the photolysis of diazo-2 was examined relying on the 1:1 competition between protons and Ca^2+ for the chelator HEEDTA, i.e.:
If diazo-2 is photolyzed in the presence of HEEDTA partially saturated with Ca^2+, the photo-generated Compound 3c would take some Ca^2+ away from HEEDTA. The newly freed HEEDTA would then take up some protons and lead to an alkalinization of the sample. The shift in Ca^2+ -binding equilibrium is thus visualized with an indicator like cresol red. Control experiments indicate that at HEEDTA buffer concentrations ≥2 mM, the intrinsic kinetics of the Ca^2+ -HEEDTA equilibrium was no longer limiting the speed of the final alkalinization.
It is noted that the solution first acidified owing to the formation and dissociation of the product carboxylic acid, but subsequently began realkalinizing as the newly formed product chelator competed with HEEDTA for Ca^2+. The time constant of the realkalinization was 2.8 ms (Table I). […]
FIG. 2B is a flash photolysis record of the kinetics of Ca^2+ uptake by photolyzed diazo-2. […] Monitoring the light transmission at 572 nm was performed as for A. Each small division of the ordinate corresponds to 3.4×10^-4 absorbance unit. […] As the photolyzed diazo-20 took Ca^2+ away from HEEDTA, the freed HEEDTA bound protons and thus alkalinized the solution, a process reflected by the increase in cresol red absorbance (i.e., decline in light transmission at 572 nm).
Kinetics of the conversion of diazo-2 and diazo-3 to the carboxylic acid products and the kinetics of Ca^2+ binding by photolyzed diazo-2 were measured by flash photolysis and pH monitoring. […]

[3] = acid-base indicator; cited from earlier work
[4] = Mg.EGTA incl. monoprotonated form, pH 7.60, 0.1M ionic strength; assumed; read-out: apparent dissociation constant for Mg complex; cited from earlier work
[5] = cited from earlier work
cells = settings: photolyzed in cells; cited from earlier work

Kd [1]: ~0.073 µM and 0.073 µM | time constant of realkalinization ([2]; 70 μM diazo-2, 2 mM HEEDTA half-saturated with Ca2+, free [Ca2+] 377 nM): 2.8 ms | koff, unimolecular rate constant for dissociation of Ca2+ complex ([2]; photolyzed diazo-2): 58 s⁻¹ | kon, bimolecular rate constant for binding of Ca2+ ([2]; photolyzed diazo-2): 8e+08 M⁻¹ s⁻¹
Compound: Cc1ccc(N(CC(=O)O)CC(=O)O)c(OCCOc2cc(CC(=O)O)ccc2N(CC(=O)O)CC(=O)O)c1 [Compound 3c]

Compound: Cc1cc(C2(c3ccc(O)c(C)c3)OS(=O)(=O)c3ccccc32)ccc1O [Cresol red]
pKa [3]: 8.2

Compound: O=C(O)CN(CCOCCOCCN(CC(=O)O)CC(=O)O)CC(=O)O [EGTA, ethylenebis(oxyethylenenitrilo)tetraacetic acid]
Kd [4]: 6000 µM

Compound: Cc1ccc(N(CC(=O)O)CC(=O)O)c(OCCOc2cc(-c3c4cc(Cl)c(=O)cc-4oc4cc(O)c(Cl)cc34)ccc2N(CC(=O)O)CC(=O)O)c1 [Fluo-3]
enhancement of fluorescence quantum yield by Ca2+ binding ([5]; Ca2+ binding): about 40 fold | Kd ([5]; read-out: Kd (Ca2+) of fluorescent indicator): 0.4 µM

Compound: Cc1ccc(N(CC(=O)O)CC(=O)O)c(OCCOc2cc(C(O)c3cc4c(cc3[N+](=O)[O-])OCO4)ccc2N(CC(=O)O)CC(=O)O)c1 (stereo not drawn) [nitr-5]
irradiation damage on photolysis in cells (in words) (cells): without noticeable irradiation damage
